# Like-named read-outs stand apart in the source and are kept apart here.
# Target: IDH1 R132H (Homo sapiens, UniProt O75874, R132H)
# Assay: Assay for IDH1 R132H inhibitors (NADPH/aKG, resazurin detection)
# Type: biochemical
# Method in brief: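 Read-out is resorufin fluorescence (Ex544/Em590) 5 min after adding a 30 μM resazurin detection mix. Before that, mutant enzyme (0.2 μg/ml in its mix) ran 50 min at room temperature with compound, 8 uM NADPH and 2 mM aKG (mix levels) in Tris pH 7.5 with NaCl, MgCl2, BSA.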
# [1] = enzyme assay of Example 12, read-out: IDH1R132H IC50
# [2] = Table 3, enzyme assay, 50 minutes at room temperature, read-out: IC50 (IDH1 R132H Inhibition)
# Chain of IDH1 R132H (O75874 whole entry R132H): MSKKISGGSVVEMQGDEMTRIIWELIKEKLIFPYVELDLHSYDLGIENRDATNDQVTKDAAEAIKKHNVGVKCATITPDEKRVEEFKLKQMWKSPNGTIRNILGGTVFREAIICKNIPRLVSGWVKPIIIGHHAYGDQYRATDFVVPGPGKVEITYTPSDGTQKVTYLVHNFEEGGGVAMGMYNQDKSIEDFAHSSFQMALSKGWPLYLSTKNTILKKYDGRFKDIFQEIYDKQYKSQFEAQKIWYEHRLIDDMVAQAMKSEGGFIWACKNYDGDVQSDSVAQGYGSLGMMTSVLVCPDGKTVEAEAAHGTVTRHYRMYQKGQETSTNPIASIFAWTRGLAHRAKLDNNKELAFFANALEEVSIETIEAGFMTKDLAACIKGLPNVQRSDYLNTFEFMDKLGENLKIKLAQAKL
Structure (SMILES),IC50 [1] [nM],IC50 [2] [nM]
"COc1ccccc1-c1cc(C(C)C)nc(N2CCN(C(=O)Cc3ccccc3)CC2)c1C#N [Compound 146, 6-isopropyl-4-(2-methoxyphenyl)-2-(4-(2-phenylacetyl)piperazin-1-yl)nicotinonitrile]",,5000 to 15000
"CC(C)c1nc(N2C[C@@H](C)N(C(=O)Cc3ccccc3)[C@@H](C)C2)c(C#N)cc1-c1ccccc1 [Compound 140, 2-((3S,5R)-3,5-dimethyl-4-(2-phenylacetyl)piperazin-1-yl)-6-isopropyl-5-phenylnicotinonitrile]",,1000 to 5000
"CC(C)c1nc(N2CCN(C(=O)c3ccoc3)[C@H](C)C2)c(C#N)cc1-c1ccoc1 [Compound 204, (R)-2-(4-(furan-3-carbonyl)-3-methylpiperazin-1-yl)-5-(furan-3-yl)-6-isopropylnicotinonitrile]",,1000 to 5000
"COCCC(=O)N1CCN(c2nc(C3CC3)c(-c3ccc4c(c3)OCO4)c(C)c2C#N)C[C@H]1C [Compound 261, (R)-5-(benzo[d][1,3]dioxol-5-yl)-6-cyclopropyl-2-(4-(3-methoxypropanoyl)-3-methylpiperazin-1-yl)-4-methylnicotinonitrile]",,≤ 1000
"COCCC(=O)N1CCN(c2nc(C3CC3)c(-c3ccncc3)c(C)c2C#N)C[C@H]1C [Compound 260, (R)-2-cyclopropyl-6-(4-(3-methoxypropanoyl)-3-methylpiperazin-1-yl)-4-methyl-3,4′-bipyridine-5-carbonitrile]",,≤ 1000
"COCCC(=O)N1CCN(c2nc(C(C)C)c(-c3ccc(C(F)(F)F)cc3)cc2C#N)C[C@H]1C(C)C [Compound 197, (R)-6-isopropyl-2-(3-isopropyl-4-(3-methoxypropanoyl)piperazin-1-yl)-5-(4-(trifluoromethyl)phenyl)nicotinonitrile]",,1000 to 5000
"COCCC(=O)N1CCN(c2nc(C3CC3)c(-c3cccc(OC(F)(F)F)c3)cc2C#N)C[C@H]1C [Compound 228, (R)-6-cyclopropyl-2-(4-(3-methoxypropanoyl)-3-methylpiperazin-1-yl)-5-(3-(trifluoromethoxy)phenyl)-nicotinonitrile]",,1000 to 5000
"COc1ccccc1-c1cc(C#N)c(N2CCN(C(=O)c3ccco3)[C@H](C)C2)nc1C(C)C [Compound 176, (R)-2-(4-(furan-2-carbonyl)-3-methylpiperazin-1-yl)-6-isopropyl-5-(2-methoxyphenyl)nicotinonitrile]",,1000 to 5000
"COCCC(=O)N1CCN(c2nc(C3CC3)c(-c3cccc(F)c3)c(C)c2C#N)C[C@H]1C [Compound 257, (R)-6-cyclopropyl-5-(3-fluorophenyl)-2-(4-(3-methoxypropanoyl)-3-methylpiperazin-1-yl)-4-methylnicotinonitrile]",,≤ 1000
"COCCC(=O)N1CCN(c2nc(C3CC3)c(-c3cccc(C(N)=O)c3)cc2C#N)C[C@H]1C [Compound 305, (R)-3-(5-cyano-2-cyclopropyl-6-(4-(3-methoxypropanoyl)-3-methylpiperazin-1-yl)pyridin-3-yl)benzamide]",500 to 1000,
"Cc1occc1C(=O)N1CCN(c2nc(C(C)C)c(-c3ccccc3)cc2C#N)C[C@H]1C [Compound 164, (R)-6-isopropyl-2-(3-methyl-4-(2-methylfuran-3-carbonyl)piperazin-1-yl)-5-phenylnicotinonitrile]",,1000 to 5000
"CC(C)c1ccc(-c2cc(C#N)c(N3CCN(C(=O)c4ccoc4)[C@H](C)C3)nc2C(C)C)cc1 [Compound 206, (R)-2-(4-(furan-3-carbonyl)-3-methylpiperazin-1-yl)-6-isopropyl-5-(4-isopropylphenyl)nicotinonitrile]",,1000 to 5000
"COc1ccccc1-c1cc(C(C)C)nc(N2CCN(C(=O)c3ccoc3)CC2)c1C#N [Compound 113, 2-(4-(furan-3-carbonyl)piperazin-1-yl)-6-isopropyl-4-(2-methoxyphenyl)nicotinonitrile]",,5000 to 15000

# Second part, the compound after the results:
IC50 [1] [nM],IC50 [2] [nM],Structure (SMILES)
500 to 1000,,"COC(=O)N1CCN(c2nc(C3CC3)c(-c3cccc4cnccc34)cc2C#N)C[C@H]1C1CC1 [Compound 489, (R)-methyl 4-(3-cyano-6-cyclopropyl-5-(isoquinolin-5-yl)pyridin-2-yl)-2-cyclopropylpiperazine-1 carboxylate]"
< 500,,"COCCC(=O)N1CCN(c2nc(C3CC3)c(-c3cccc(F)c3F)c(C)c2C#N)C[C@H]1C [Compound 405, (R)-6-cyclopropyl-5-(2,3-difluoro-phenyl)-2-[4-(3-methoxy-propionyl)-3-methyl-piperazin-1-yl]-4-methyl-nicotinonitrile]"
< 500,,"COCCC(=O)N1CCN(c2nc(C3CC3)c(-c3cc(Cl)nc(Cl)c3)cc2C#N)C[C@H]1C [Compound 586, (R)-2′,6′-dichloro-2-cyclopropyl-6-(4-(3-methoxypropanoyl)-3-methylpiperazin-1-yl)-[3,4′-bipyridine]-5-carbonitrile]"
< 500,,"N#Cc1cc(-c2cccc3nccnc23)c(C2CC2)nc1N1CCN(C(=O)CC(F)(F)F)[C@H](C2CC2)C1 [Compound 532, (R)-6-cyclopropyl-2-(3-cyclopropyl-4-(3,3,3-trifluoropropanoyl)piperazin-1-yl)-5-(quinoxalin-5-yl)nicotinonitrile]"
500 to 1000,,"COCCC(=O)N1CCN(c2nc(C3CC3)c(-c3cc(Cl)nc(C#N)c3)cc2C#N)C[C@H]1C [Compound 673, (R)-6′-chloro-2-cyclopropyl-6-(4-(3-methoxypropanoyl)-3-methylpiperazin-1-yl)-[3,4′-bipyridine]-2′,5-dicarbonitrile]"
500 to 1000,,"COCCC(=O)N1CCN(c2nc(C3CC3)c(-c3cccc(NC(=O)/C=C/CN(C)C)c3)cc2C#N)C[C@H]1C [Compound 441, (R,E)-N-(3-(5-cyano-2-cyclopropyl-6-(4-(3-methoxypropanoyl)-3-methylpiperazin-1-yl)pyridin-3-yl)phenyl)-4-(dimethylamino)but-2-enamide]"
< 500,,"C=Cc1ccnc(N(c2cc(C=C)ccn2)c2cc(C#N)c(N3CCN(C(=O)CCOC)[C@H](C)C3)nc2C2CC2)c1 [Compound 646, (R)-5-(bis(4-vinylpyridin-2-yl)amino)-6-cyclopropyl-2-(4-(3-methoxypropanoyl)-3-methylpiperazin-1-yl)nicotinonitrile]"
< 500,,"C=Cc1nc(-c2cc(C#N)c(N3CCN(C(=O)CCOC)[C@H](C)C3)nc2C2CC2)ncc1F [Compound 601, (R)-6-cyclopropyl-5-(5-fluoro-4-vinylpyrimidin-2-yl)-2-(4-(3-methoxypropanoyl)-3-methylpiperazin-1-yl)nicotinonitrile]"
< 500,,"Cn1ncc(-c2cc(C#N)c(N3CCN(C(=O)C4CC4)[C@H](C4CC4)C3)nc2C2CC2)cc1=O [Compound 640, (R)-2-(4-(cyclopropanecarbonyl)-3-cyclopropylpiperazin-1-yl)-6-cyclopropyl-5-(1-methyl-6-oxo-1,6-dihydropyridazin-4-yl)nicotinonitrile]"
< 500,,"COCCC(=O)N1CCN(c2nc(C3CC3)c(Nc3ccnc(OC)c3)cc2C#N)C[C@H]1C [Compound 682, (R)-6-cyclopropyl-2-(4-(3-methoxypropanoyl)-3-methylpiperazin-1-yl)-5-((2-methoxypyridin-4-yl)amino)nicotinonitrile]"
< 500,,COCCC(=O)N1CCN(c2nc(C3CC3)c(-c3cncc(C)c3)c(C)c2C#N)C[C@H]1C [Compound 318]
